Measurements reported in ChEMBL document CHEMBL1201862, “PubChem BioAssay data set” (2004).
The source made the active and inactive calls.

Assays:
Prothrombin [1] = target: Prothrombin (Bos taurus, UniProt P00735); experiment: thrombin protease inhibitors – biochemical, fluorescence polarization, uHTS hits, dose response (AID 602369); assay type: functional
[2] = target: 72 kDa type IV collagenase (Homo sapiens, UniProt P08253); experiment: Dose Response validation of uHTS RPN11 inhibitor hits using a MMP-2 Fluorescence assay.; assay type: functional
Chain of 72 kDa type IV collagenase (P08253 whole entry): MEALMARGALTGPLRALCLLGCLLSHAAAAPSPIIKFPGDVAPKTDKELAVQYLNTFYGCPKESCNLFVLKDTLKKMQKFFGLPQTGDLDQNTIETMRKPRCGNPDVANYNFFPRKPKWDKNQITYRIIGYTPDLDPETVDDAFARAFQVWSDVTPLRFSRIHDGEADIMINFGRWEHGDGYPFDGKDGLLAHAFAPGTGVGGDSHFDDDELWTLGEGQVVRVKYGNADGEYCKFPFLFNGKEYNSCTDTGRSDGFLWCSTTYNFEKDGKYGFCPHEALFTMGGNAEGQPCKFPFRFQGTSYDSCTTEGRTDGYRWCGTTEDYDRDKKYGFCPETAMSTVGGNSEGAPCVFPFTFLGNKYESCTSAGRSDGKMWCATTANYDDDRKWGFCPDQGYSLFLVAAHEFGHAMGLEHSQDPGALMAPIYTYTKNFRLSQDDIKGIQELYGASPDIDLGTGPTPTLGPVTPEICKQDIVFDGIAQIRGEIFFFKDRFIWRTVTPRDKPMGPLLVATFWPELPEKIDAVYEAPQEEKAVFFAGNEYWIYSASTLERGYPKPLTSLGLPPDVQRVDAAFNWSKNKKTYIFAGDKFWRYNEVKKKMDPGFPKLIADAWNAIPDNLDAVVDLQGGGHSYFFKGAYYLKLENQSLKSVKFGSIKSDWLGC

[3] = target: 26S proteasome non-ATPase regulatory subunit 14 (Homo sapiens, UniProt O00487); experiment: inhibition of proteasome subunit RPN11 – biochemical, fluorescence polarization, uHTS hits, confirmation (AID 602368); assay type: functional
Chain of 26S proteasome non-ATPase regulatory subunit 14 (O00487 whole entry): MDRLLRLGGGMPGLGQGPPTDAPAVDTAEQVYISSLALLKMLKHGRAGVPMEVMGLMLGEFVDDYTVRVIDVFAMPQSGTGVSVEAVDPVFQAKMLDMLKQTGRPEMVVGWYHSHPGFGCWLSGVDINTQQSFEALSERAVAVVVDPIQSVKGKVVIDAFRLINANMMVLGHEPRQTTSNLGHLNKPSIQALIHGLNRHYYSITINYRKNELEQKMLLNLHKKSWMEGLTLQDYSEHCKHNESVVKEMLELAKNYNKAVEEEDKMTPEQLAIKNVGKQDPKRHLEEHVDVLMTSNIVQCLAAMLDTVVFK

[4] = target: T1, Zinc finger protein mex-5 (Caenorhabditis elegans, UniProt Q9XUB2); experiment: potency of MEX-5 RNA-binding blockers – biochemical, C. elegans, fluorescence polarization, dose response (AID 1960)
T1 sequence (Q9XUB2 whole entry): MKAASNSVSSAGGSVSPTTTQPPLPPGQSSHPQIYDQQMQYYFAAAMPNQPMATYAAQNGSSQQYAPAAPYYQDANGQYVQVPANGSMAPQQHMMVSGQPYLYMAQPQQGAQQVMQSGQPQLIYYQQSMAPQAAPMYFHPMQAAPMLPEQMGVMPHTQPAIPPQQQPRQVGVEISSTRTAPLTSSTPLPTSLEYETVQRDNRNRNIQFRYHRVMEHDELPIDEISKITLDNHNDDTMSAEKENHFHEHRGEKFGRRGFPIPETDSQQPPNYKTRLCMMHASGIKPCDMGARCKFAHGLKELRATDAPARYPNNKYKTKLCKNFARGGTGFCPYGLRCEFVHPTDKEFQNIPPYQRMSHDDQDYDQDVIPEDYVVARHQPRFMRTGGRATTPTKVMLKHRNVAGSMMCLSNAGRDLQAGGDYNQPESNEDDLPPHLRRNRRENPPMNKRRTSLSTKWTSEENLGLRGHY

[5] = target: T2, RNA-binding protein pos-1 (Caenorhabditis elegans, UniProt G5EF15); experiment: disruptors of C. elegans POS-1 RNA interaction – biochemical, fluorescence polarization, dose response (AID 1964);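 further: purified POS-1 fused to maltose binding protein made in E. coli; potency of compounds blocking POS-1 binding to fluorescent RNA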
T2 sequence (G5EF15 whole entry): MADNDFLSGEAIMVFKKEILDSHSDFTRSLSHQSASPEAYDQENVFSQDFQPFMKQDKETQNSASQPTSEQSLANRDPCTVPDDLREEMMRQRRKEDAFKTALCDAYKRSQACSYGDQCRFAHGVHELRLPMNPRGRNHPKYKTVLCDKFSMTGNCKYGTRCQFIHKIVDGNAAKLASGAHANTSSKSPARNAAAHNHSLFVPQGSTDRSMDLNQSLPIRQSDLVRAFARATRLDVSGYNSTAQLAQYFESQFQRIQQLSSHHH

Aspartyl aminopeptidase = target: T3, Aspartyl aminopeptidase (Plasmodium falciparum 3D7, UniProt Q8I2J3)
T3 sequence (Q8I2J3 whole entry): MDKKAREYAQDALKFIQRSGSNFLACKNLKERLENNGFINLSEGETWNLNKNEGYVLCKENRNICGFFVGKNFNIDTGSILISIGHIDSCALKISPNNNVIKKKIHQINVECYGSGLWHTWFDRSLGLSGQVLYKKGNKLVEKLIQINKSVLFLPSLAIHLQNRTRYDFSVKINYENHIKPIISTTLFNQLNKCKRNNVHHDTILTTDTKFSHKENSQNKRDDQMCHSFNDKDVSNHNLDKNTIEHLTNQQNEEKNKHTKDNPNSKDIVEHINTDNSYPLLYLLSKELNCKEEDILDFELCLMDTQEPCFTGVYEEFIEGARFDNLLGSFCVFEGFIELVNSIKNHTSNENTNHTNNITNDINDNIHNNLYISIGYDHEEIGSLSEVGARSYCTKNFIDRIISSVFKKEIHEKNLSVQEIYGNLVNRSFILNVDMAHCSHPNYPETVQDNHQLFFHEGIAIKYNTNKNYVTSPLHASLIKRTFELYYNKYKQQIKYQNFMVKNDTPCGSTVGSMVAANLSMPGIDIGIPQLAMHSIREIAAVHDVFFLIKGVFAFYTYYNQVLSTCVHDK

Procathepsin L = Procathepsin L (Homo sapiens, UniProt P07711)
Chain of Procathepsin L (P07711 whole entry): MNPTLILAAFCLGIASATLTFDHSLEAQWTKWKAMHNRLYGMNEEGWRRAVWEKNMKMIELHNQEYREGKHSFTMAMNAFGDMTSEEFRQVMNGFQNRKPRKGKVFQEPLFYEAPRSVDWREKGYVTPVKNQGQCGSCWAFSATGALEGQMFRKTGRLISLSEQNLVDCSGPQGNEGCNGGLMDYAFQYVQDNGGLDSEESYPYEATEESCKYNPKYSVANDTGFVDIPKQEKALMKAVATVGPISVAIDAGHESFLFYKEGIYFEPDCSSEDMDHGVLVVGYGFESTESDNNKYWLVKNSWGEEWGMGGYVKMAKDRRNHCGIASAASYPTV

[6] = HIV-1 Vif–A3G interaction blockers – biochemical, TR-FRET, GST-Vif 1-94, biotin-A3G peptide, dose response retest, primary screen (AID 1117319); assay type: functional;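 further: TR-FRET signal of purified GST-Vif binding a biotinylated A3G peptide; inhibitors lower the FRET signal by blocking Vif and A3G binding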
[7] = system: Streptococcus sp. 'group A'; experiment: Streptococcus pyogenes SK(-)GAS viability under kanamycin – luminescence, BacTiterGlo, confirmation, counter-screen for streptokinase expression inhibitor project, dose response (AID 1900); assay type: functional, organism-based
Streptococcus = experiment: GAS UMAA2166 growth inhibition – luminescence, BacTiterGlo, counter-screen for streptokinase expression inhibitor project, dose response (AID 1915); assay type: functional, organism-based;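 further: potency for reduction of bacterial viability or growth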
Streptokinase A = target: T4, Streptokinase A (Streptococcus pyogenes serotype M1, UniProt P10520); experiment: viability-normalized secreted streptokinase activity reduction – plasminogen activation absorbance, OD405, dose response (AID 1914); assay type: functional, Streptococcus pyogenes M1 GAS;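 further: secreted streptokinase activity via plasminogen activation per viability signal from cell pellet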
T4 sequence (P10520 whole entry): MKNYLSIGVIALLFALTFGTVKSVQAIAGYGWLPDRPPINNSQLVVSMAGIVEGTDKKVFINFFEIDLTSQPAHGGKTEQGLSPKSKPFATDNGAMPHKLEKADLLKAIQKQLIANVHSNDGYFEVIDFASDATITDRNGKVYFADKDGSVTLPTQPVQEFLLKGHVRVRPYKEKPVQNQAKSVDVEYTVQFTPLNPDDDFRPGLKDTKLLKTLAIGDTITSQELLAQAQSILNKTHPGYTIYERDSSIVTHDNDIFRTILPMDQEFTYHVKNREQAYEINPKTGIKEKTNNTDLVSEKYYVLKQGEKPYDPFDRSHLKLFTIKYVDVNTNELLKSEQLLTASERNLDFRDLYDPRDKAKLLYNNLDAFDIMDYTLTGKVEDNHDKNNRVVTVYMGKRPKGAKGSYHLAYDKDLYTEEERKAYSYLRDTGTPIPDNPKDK

Prothrombin [8] = target: Prothrombin (Homo sapiens, UniProt P00734); experiment: Thrombin 1536 HTS Dose Response Confirmation. [Related pubchem assays: 1046 (Thrombin 1536 HTS; hits were confirmed in this assay)]; assay type: functional
[9] = viability loss of HPDE-C7K cells – cell-based, fluorescence, HTS, primary screen (AID 431); assay type: functional; conditions: Homo sapiens
[10] = HPDE-C7 pancreatic duct cell viability loss – fluorescence, HTS (AID 430); assay type: functional, cell-based; conditions: Homo sapiens
[11] = target: T5, High affinity choline transporter 1 (Homo sapiens, UniProt Q9GZV3); experiment: human choline transporter blockers, potency – cell-based, 5-point CRC, membrane potential dye, dose response (AID 504840); assay type: functional
T5 sequence (Q9GZV3 whole entry): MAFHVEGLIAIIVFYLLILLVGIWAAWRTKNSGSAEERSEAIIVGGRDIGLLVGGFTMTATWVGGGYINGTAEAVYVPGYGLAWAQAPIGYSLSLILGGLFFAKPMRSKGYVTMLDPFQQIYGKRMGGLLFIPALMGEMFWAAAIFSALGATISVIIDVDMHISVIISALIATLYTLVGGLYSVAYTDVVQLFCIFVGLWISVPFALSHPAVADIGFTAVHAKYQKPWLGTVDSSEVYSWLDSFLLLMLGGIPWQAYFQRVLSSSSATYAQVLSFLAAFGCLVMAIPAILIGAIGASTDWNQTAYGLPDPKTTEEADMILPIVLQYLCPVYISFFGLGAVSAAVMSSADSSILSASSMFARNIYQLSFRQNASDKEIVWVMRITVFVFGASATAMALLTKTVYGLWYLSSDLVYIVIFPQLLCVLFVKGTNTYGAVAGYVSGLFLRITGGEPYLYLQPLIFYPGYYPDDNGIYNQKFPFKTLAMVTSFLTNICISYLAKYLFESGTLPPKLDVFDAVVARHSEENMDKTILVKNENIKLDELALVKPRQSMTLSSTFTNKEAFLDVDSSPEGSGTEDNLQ

[12] = reduced cellular PGC1a acetyl-lysine signal – cell-based, cherry-picked samples, dose response (AID 720514); assay type: functional;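 further: potency may reflect raised or lowered acetylation signal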
[13] = target: T6, Carboxy-terminal domain RNA polymerase II polypeptide A small phosphatase 1 (Homo sapiens, UniProt Q9GZU7); experiment: CTDSP1 inhibitors, concentration-response, biochemical, absorbance readout, ultra-high-throughput screen actives (AID 540297); assay type: functional
T6 sequence (Q9GZU7 whole entry): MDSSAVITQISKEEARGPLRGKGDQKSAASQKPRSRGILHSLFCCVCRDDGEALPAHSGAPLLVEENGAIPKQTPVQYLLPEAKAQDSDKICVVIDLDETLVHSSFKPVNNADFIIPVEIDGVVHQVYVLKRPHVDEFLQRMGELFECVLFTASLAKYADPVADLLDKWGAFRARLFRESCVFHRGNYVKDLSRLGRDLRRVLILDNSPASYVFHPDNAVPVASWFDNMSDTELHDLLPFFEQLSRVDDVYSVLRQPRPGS

Cc1c(OCC(N)=O)ccc2c(-c3ccccc3)cc(=O)oc12
IC50 (Prothrombin [1]): 78.1 µM (active) | IC50 [2]: 57.2 µM (active) | IC50 [3]: 57.7 µM (active)

Cc1ccc(/C=C(\C#N)C(=O)Nc2c(C)cccc2C)s1
EC50 [4]: > 300 µM (not active) | IC50 (Prothrombin [1]): 23.5 µM (active) | EC50 [5]: > 300 µM (not active) | IC50 [2]: > 100 µM (inactive) | IC50 [3]: 13.5 µM (active)

Cc1nc2ccccn2c1C(=O)NNC(=O)Nc1ccccc1
IC50 (Aspartyl aminopeptidase): 1.05 µM (active) | IC50 (Procathepsin L): > 59.6 µM (not active)

NCCOc1ccccc1Cc1ccccc1
IC50 [6]: > 100 µM (active)

COC(=O)Nc1sc2c(c1C(=O)NCc1ccco1)CCCC2
IC50 [6]: > 100 µM (active)

O=C(Cn1cn[n+](CC(=O)c2ccc(Cl)cc2Cl)c1)c1ccc([N+](=O)[O-])cc1
EC50 [7]: 11.3 µM (active) | EC50 (Streptococcus): > 150 µM (not active) | EC50 (Streptokinase A): 21.4 µM (active) | IC50 (Prothrombin [8]): 1.7 µM (active)

Cc1cc(C)nc(Nc2ccccc2Br)n1
IC50 (Prothrombin [8]): > 50 µM (not active)

CCOCCCn1c(C)nc2c(c1=O)c1nc3ccccc3nc1n2CCC1=CCCCC1
EC50 [9]: > 20 µM (not active) | EC50 [10]: > 20 µM (not active)

O=C(CCN1C(=O)c2ccccc2C1=O)NCc1ccco1
IC50 [6]: > 100 µM (active)

Cc1cc(C)nc(SCc2cc(=O)c(OC(=O)c3ccc(Br)o3)co2)n1
IC50 [11]: 14.5 µM (active)

Cc1nnc(NNS(=O)(=O)c2ccc(Cl)cc2)[nH]c1=O
IC50 (Aspartyl aminopeptidase): 1.57 µM (active) | IC50 (Procathepsin L): > 59.6 µM (not active)

O=C(c1cnn2cccnc12)N1CCN(Cc2ccc3c(c2)OCO3)CC1
IC50 [6]: > 100 µM (active)

C=CCNc1nc2ccccc2nc1NS(=O)(=O)c1ccc(Br)cc1
IC50 [11]: 13.2 µM (active)

COc1cccc(-n2c(Cc3cc(O)nc(O)n3)nnc2SCC(=O)NC2CCCC2)c1
IC50 [6]: > 100 µM (active)

COc1ccc(C(=O)N2C(=S)NC(=O)/C2=C\c2ccc(C)cc2)cc1
IC50 (Prothrombin [1]): 37.8 µM (active) | IC50 [2]: 23.8 µM (active) | IC50 [3]: 22.5 µM (active)

COC(=O)c1ccccc1NC(=O)c1cc(-c2cccs2)on1
EC50 [9]: > 20 µM (not active) | EC50 [10]: > 20 µM (not active)

COc1ccc(NC(C)(C)c2nnnn2-c2c(C)cccc2C)cc1
IC50 [11]: 25.1 µM (active)

Cc1c(NS(=O)(=O)c2ccc(Cl)c(C(=O)OCC(=O)NCc3ccco3)c2)c(=O)n(-c2ccccc2)n1C
IC50 (Prothrombin [8]): > 50 µM (not active)

Cc1noc(C)c1CSc1nnc(-c2cccnc2)n1C1CCCCC1C (configuration not stated)
AC50 [12]: 28.4 µM (active)

CC1CN(C(=O)CCC(=O)NC(C)c2ccccc2)c2cc(Cl)ccc2O1 (configuration not stated)
IC50 [11]: 15.1 µM (active)

CN(CC(=O)Nc1ccc(Cl)cc1)C(=O)CCc1nc(O)c2c3c(sc2n1)CCCC3
IC50 (Prothrombin [1]): 26.4 µM (active) | IC50 [2]: > 100 µM (inactive) | IC50 [3]: 30.7 µM (active)

CCc1ccc(S(=O)(=O)NC(CC(=O)O)c2ccccc2)cc1 (configuration not stated)
EC50 [9]: > 20 µM (not active) | EC50 [10]: > 20 µM (not active)

COc1c(C)cc(C(=O)C2CCCN(S(=O)(=O)c3c(C)noc3C)C2)cc1C (configuration not stated)
IC50 (Prothrombin [8]): > 50 µM (not active)

O=S(=O)(Nn1cnnc1)c1ccccc1
IC50 (Aspartyl aminopeptidase): 3.81 µM (active) | IC50 (Procathepsin L): > 59.6 µM (not active)

Cc1ccccc1CCNCc1cc2cccc(C)c2nc1O
IC50 [11]: 10 µM (active)

O=C(Nc1ccc(-c2nc3ccccc3s2)c(O)c1)C1=COCCO1
IC50 (Prothrombin [1]): 91.4 µM (active) | IC50 [2]: > 100 µM (inactive) | IC50 [3]: 22.5 µM (active) | IC50 [13]: 3.39 µM (active)

CC(=O)Nc1ccc(S(=O)(=O)Nc2nnc(C(C)C)s2)cc1
IC50 [6]: > 100 µM (active)

CCOC(=O)c1ccc(/N=C/c2nc(-c3ccccc3)oc2OC(C)=O)cc1
IC50 (Prothrombin [8]): 0.526 µM (active)

COc1cc(CN2C[C@@H]3N[C@H](C2)[C@@H]3c2ccc(-c3ccccc3C)cc2)cc(OC)c1
AC50 [12]: 6.84 µM (active)

C/C(=N/NC(=O)c1cc(Cl)ccc1O)C12CC3CC(CC(C3)C1)C2
IC50 [11]: 8.58 µM (active)
